Our source for the IC50 values is patent US8138194B2, “Fused bicyclic pyrimidine compounds as aurora kinase inhibitors” (National Health Research Institutes, priority 2008, dated 2012).

One experiment has as its system HCT-116 cells. As to the kind of experiment: HCT-116 cell viability MTS assay. The conditions noted are these: Homo sapiens. The class given is cell-based. The method, then: HCT-116 cell viability was examined by the MTS assay (Promega, Madison, Wis., USA). 2000 HCT-116 cells in 100 μL McCoy's 5a medium were seeded in each well of a 96-well plate. After 96-h incubation with a test compound, the cells were incubated with 20 μL of a MTS/PMS mixture (MTS/PMS ratio: 20: 1) for 2 h at 37° C. in a humidified incubator with 5% CO2 to allow viable cells to convert the tetrazolium salt (MTS) into formazan. The amount/concentration of formazan, which indicates the number of live cells, was determined by measuring the absorbance at 490 nm using a PerkinElmer Victor2 plate reader (PerkinElmer, Shelton, Cont., USA).
A general note: Tetrazolium dyes change colour on reduction, which living cells bring about.

The target in experiment [1] is T1, GST-tAurora A (123-401aa) fusion protein (Homo sapiens, UniProt O14965).
T1 construct: GST-tAurora A (123-401aa) fusion protein; made in house; host or cells: Sf9 insect cells (baculovirus, pBacPAK8)
T1 sequence (O14965 123-401): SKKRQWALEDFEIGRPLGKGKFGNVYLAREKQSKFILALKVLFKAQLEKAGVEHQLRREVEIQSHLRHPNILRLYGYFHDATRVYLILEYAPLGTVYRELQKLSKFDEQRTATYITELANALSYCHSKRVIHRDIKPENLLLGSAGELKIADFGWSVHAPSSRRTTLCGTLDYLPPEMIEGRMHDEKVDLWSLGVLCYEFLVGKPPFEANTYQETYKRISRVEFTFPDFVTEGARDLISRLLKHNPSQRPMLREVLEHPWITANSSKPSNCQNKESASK
As to the kind of experiment: Aurora Kinase A luminescent kinase assay. The class given is biochemical. Conditions: IC50 (concentration of a test compound at which activity of 50% of Aurora A is inhibited). The method, then: The Aurora A catalytic domain with an N-terminal GST tag was constructed in pBacPAK8 plasmid and expressed in sf9 cells. […] To concentrate GST-tAurora A, buffer was replaced with Tris buffer (100 mM Tris (pH 7.5), 300 mM NaCl, 1 mM EDTA, 4 mM DTT) using Amicon ultra-15 (MWCO:30K, Millipore) to 2.4 mg/ml. After the addition of equal volume of glycerol and 0.04% Triton X-100, the proteins were stored aliquoted at −80° C.
Briefly, a test compound, enzyme, substrate-tetra(LRRWSLG), DTT and ATP were dissolved in Aur buffer (50 mM Tris-HCl pH 7.4, 10 mM NaCl, 10 mM MgCl2, and 100 μg/ml BSA) individually before the assay. […] 5 μM ATP (5 μl), 1 mM DTT (5 μl) and 0.1 mM tetra(LRRWSLG) peptide substrate (5 μl) were added into the reactions of test compounds and GST-tAurora A. The reactions were incubated at 37° C. for 90 min. 50 μl of Kinase-Glo Plus Reagent (V3771, Promega) was added into the reactions, followed by the incubation at 25° C. for 20 min.

Setting [2] is: read-out: IC50 (concentration of a test compound which causes 50% of the cell death), HCT-116, 96-h incubation, MTS.

Several values for one entry are separate records, joined by “and”; a condition that tells them apart may be missing. Identical values can stand only once. Like-named read-outs stand apart in the source and are kept apart here.

In the case of `O=C(Nc1ccccc1)Nc1ccc(CCNc2ncnc3oc(-c4ccccc4)c(-c4ccccc4)c23)cc1` [Compound 6, 1-(4-(2-(5,6-diphenylfuro[2,3-d]pyrimidin-4-ylamino)ethyl)phenyl)-3-phenylurea], the IC50 in the experiment with HCT-116 cells (setting [2]) was in the range of 100 to 900 nM.
Regarding `O=C(Nc1ccc(CCNc2ncnc3oc(-c4ccccc4)c(-c4ccccc4)c23)cc1)Nc1cccc(F)c1` [Compound 14], the IC50 in experiment [1] is 45 to 400 nM and < 1000 nM; in the experiment on HCT-116 cells (setting [2]), 100 to 900 nM.
Consider `COc1ccc(-c2oc3ncnc(NCCc4ccc(NC(=O)Nc5ccccc5)cc4)c3c2-c2ccc(OC)cc2)cc1` [Compound 23], for which the IC50 in experiment [1] is 45 to 400 nM and < 1000 nM; in the experiment on HCT-116 cells (setting [2]), 100 to 900 nM.
For `O=C(Nc1ccccc1)Nc1ccc(CCNc2ncnc3oc(-c4ccc(O)cc4)c(-c4ccc(O)cc4)c23)cc1` [Compound 24], the IC50 in experiment [1] was under 1000 nM; in the experiment with HCT-116 cells (setting [2]), 100 to 900 nM.
Consider `O=C(Nc1ccccc1)Nc1ccc(CCNc2ncnc3sc4c(c23)CCCC4)cc1` [Compound 42, N-phenyl-N′-4-[2-(5,6,7,8-tetrahydrobenzo[4,5]thieno[2,3-d]pyrimidin-4-ylamino)ethyl]phenylurea], for which the IC50 in experiment [1] is 45 to 400 nM and < 1000 nM; in the experiment with HCT-116 cells (setting [2]) it was 100 to 900 nM.
As to `O=C(Nc1ccccc1)Nc1ccc(CCNc2ncnc3oc(-c4ccccc4)c(Br)c23)cc1` [Compound 57], the IC50 is 45 to 400 nM and < 1000 nM in experiment [1]; 100 to 900 nM with HCT-116 cells (setting [2]).
Consider `CC(=O)Nc1ccc(-c2c(-c3ccccc3)oc3ncnc(NCCc4ccc(NC(=O)Nc5ccccc5)cc4)c23)cc1` [Compound 58], for which the IC50 in experiment [1] is under 1000 nM; in the experiment with HCT-116 cells (setting [2]), 100 to 900 nM.
`O=C(Nc1ccccc1)Nc1ccc(CCNc2ncnc3oc(-c4ccccc4)c(-c4ccc(O)cc4)c23)cc1` [Compound 60]: the IC50 in experiment [1] is under 1000 nM; in the experiment with HCT-116 cells (setting [2]) it was 100 to 900 nM.
`O=C(Nc1ccc(F)cc1)Nc1ccc(CCNc2ncnc3oc(-c4ccccc4)c(-c4ccccc4)c23)cc1` [Compound 61]: the IC50 in experiment [1] is 45 to 400 nM and < 1000 nM; with HCT-116 cells (setting [2]) it was 100 to 900 nM.
Regarding `O=C(Nc1ccccc1)Nc1ccc(CCNc2ncnc3oc(-c4ccccc4)cc23)cc1` [Compound 79], the IC50 is 45 to 400 nM and < 1000 nM in experiment [1]; 100 to 900 nM in the experiment with HCT-116 cells (setting [2]).
For the molecule `CC(=O)Nc1cccc(-c2c(-c3ccccc3)oc3ncnc(NCCc4ccc(NC(=O)Nc5ccccc5)cc4)c23)c1` [Compound 80], the IC50 in experiment [1] was 45 to 400 nM and < 1000 nM; with HCT-116 cells (setting [2]) it was 100 to 900 nM.
For `O=C(Nc1ccc(CCNc2ncnc3oc(-c4ccccc4)c(-c4ccccc4)c23)cc1)Nc1ccc(F)cc1F` [Compound 92], the IC50 was under 1000 nM in experiment [1] and 100 to 900 nM in the experiment with HCT-116 cells (setting [2]).
For `O=C(Nc1ccc(Cl)cc1)Nc1ccc(CCNc2ncnc3oc(-c4ccccc4)c(-c4ccccc4)c23)cc1` [Compound 93] the same measures were under 1000 nM and 100 to 900 nM.
Turning to `O=C(Nc1ccc(CCNc2ncnc3oc(-c4ccccc4)c(-c4ccccc4)c23)cc1)Nc1ccccc1F` [Compound 96], the IC50 was 45 to 400 nM and < 1000 nM in experiment [1]; 100 to 900 nM in the experiment on HCT-116 cells (setting [2]).
For `CN(C)Cc1ccc(NC(=O)Nc2ccc(CCNc3ncnc4oc(-c5ccccc5)c(-c5ccccc5)c34)cc2)cc1` [Compound 115], the IC50 is under 1000 nM in experiment [1] and 100 to 900 nM in the experiment with HCT-116 cells (setting [2]).
Regarding `CN(C)Cc1cccc(NC(=O)Nc2ccc(CCNc3ncnc4oc(-c5ccccc5)c(-c5ccccc5)c34)cc2)c1` [Compound 119], in experiment [1], the IC50 was < 1000 nM and 45 to 400 nM.
With `CN1CCN(Cc2cccc(NC(=O)Nc3ccc(CCNc4ncnc5oc(-c6ccccc6)c(-c6ccccc6)c45)cc3)c2)CC1` [Compound 122], the IC50 in experiment [1] was under 1000 nM.
`CN(C)Cc1ccccc1NC(=O)Nc1ccc(CCNc2ncnc3oc(-c4ccccc4)c(-c4ccccc4)c23)cc1` [Compound 123]: the IC50 in experiment [1] is 45 to 400 nM and < 1000 nM; in the experiment with HCT-116 cells (setting [2]) it was 100 to 900 nM.
`O=C(Nc1ccc(CCNc2ncnc3oc(-c4ccccc4)c(-c4ccccc4)c23)cc1)Nc1ccccc1CN1CCCCC1` [Compound 124] gave an IC50 in experiment [1] of under 1000 nM.
On the same count and under the same terms, the value for `CN1CCN(Cc2ccccc2NC(=O)Nc2ccc(CCNc3ncnc4oc(-c5ccccc5)c(-c5ccccc5)c34)cc2)CC1` [Compound 126] was under 1000 nM; that for `O=C(Nc1ccc(CCNc2ncnc3oc(-c4ccccc4)c(-c4ccccc4)c23)cc1)Nc1ccccn1` [Compound 146] was 45 to 400 nM and < 1000 nM.
For `O=C(Nc1ccc(CCNc2ncnc3oc(-c4ccccc4)c(-c4ccccc4)c23)cc1)Nc1cccnc1` [Compound 147], the IC50 in experiment [1] is 45 to 400 nM and < 1000 nM; with HCT-116 cells (setting [2]), 100 to 900 nM.
In the case of `O=C(Nc1ccncc1)Nc1ccc(CCNc2ncnc3oc(-c4ccccc4)c(-c4ccccc4)c23)cc1` [Compound 148], the IC50 in experiment [1] is under 1000 nM; in the experiment on HCT-116 cells (setting [2]) it was 100 to 900 nM.
With `O=C(Nc1ccc(CCNc2ncnc3oc(-c4ccccc4)c(-c4ccccc4)c23)cc1)Nc1cnccn1` [Compound 151], in experiment [1], the IC50 was under 1000 nM.
Same read-out and setting: under `Cc1cc(NC(=O)Nc2ccc(CCNc3ncnc4oc(-c5ccccc5)c(-c5ccccc5)c34)cc2)no1` [Compound 160] stands under 1000 nM; under `Cc1cc(NC(=O)Nc2ccc(CCNc3ncnc4oc(-c5ccccc5)c(-c5ccccc5)c34)cc2)on1` [Compound 161], < 1000 nM and 45 to 400 nM; under `Cc1csc(NC(=O)Nc2ccc(CCNc3ncnc4oc(-c5ccccc5)c(-c5ccccc5)c34)cc2)n1` [Compound 163], < 1000 nM and 45 to 400 nM.
Still for that read-out and setting: under `Cc1cnc(NC(=O)Nc2ccc(CCNc3ncnc4oc(-c5ccccc5)c(-c5ccccc5)c34)cc2)s1` [Compound 164] stands under 1000 nM.
With `O=C(Nc1ccccc1)Nc1ncc(CCNc2ncnc3oc(-c4ccccc4)c(-c4ccccc4)c23)s1` [Compound 171], the IC50 in experiment [1] is 45 to 400 nM and < 1000 nM; in the experiment with HCT-116 cells (setting [2]) it was 100 to 900 nM.
In experiment [1], `O=C(Nc1ccccc1)Nc1ccc(CCNc2ncnc3oc4c(c23)CCCC4)cc1` [Compound 173] showed an IC50 of under 1000 nM.
Same read-out and setting: the value for `O=C(Nc1ccc(CCNc2ncnc3oc(-c4ccccc4)c(-c4ccccc4)c23)cc1)Nc1ccccc1Br` [Compound 197] was under 1000 nM; that for `CN(C)CCNC(=O)Nc1ccc(CCNc2ncnc3oc(-c4ccccc4)c(-c4ccccc4)c23)cc1` [Compound 198] was 45 to 400 nM and < 1000 nM.
The same measure, in the same setting: under `O=C(NCCO)Nc1ccc(CCNc2ncnc3oc(-c4ccccc4)c(-c4ccccc4)c23)cc1` [Compound 199] stands 45 to 400 nM and < 1000 nM.
The same measure, in the same setting: under `CCOC(=O)CNC(=O)Nc1ccc(CCNc2ncnc3oc(-c4ccccc4)c(-c4ccccc4)c23)cc1` [Compound 200] stands under 1000 nM; under `O=C(Nc1ccc(CCNc2ncnc3oc(-c4ccccc4)c(-c4ccccc4)c23)cc1)NC1CC1` [Compound 201], < 1000 nM and 45 to 400 nM; under `O=C(Nc1ccccc1)Nc1ccc(CCNc2ncnc3occ(-c4ccccc4)c23)cc1` [Compound 203], < 1000 nM and 45 to 400 nM.
With `CN(C)CCOc1ccc(-c2cc3c(NCCc4ccc(NC(=O)Nc5ccccc5)cc4)ncnc3o2)cc1` [Compound 207], the IC50 in the experiment on HCT-116 cells (HCT-116, 96 h, read-out: IC50 (concentration of a test compound which causes 50% of the cell death), HCT-116, 96-h incubation, MTS) lay within 100 to 900 nM.
For `CCOC(=O)N1CCc2c(sc3ncnc(NCCc4ccc(NC(=O)Nc5ccccc5)cc4)c23)C1` [Compound 208], the IC50 in experiment [1] is < 1000 nM and 45 to 400 nM.
On the same count and under the same terms, under `O=C(NCCCCl)Nc1ccc(CCNc2ncnc3oc(-c4ccccc4)c(-c4ccccc4)c23)cc1` [Compound 227] stands under 1000 nM.
Turning to `O=C(Nc1ccc(CCNc2ncnc3oc(-c4ccccc4)c(Cl)c23)cc1)c1ccccc1` [Compound 228], in experiment [1], the IC50 is under 1000 nM.
`O=C(Nc1ccc(CCNc2ncnc3oc(-c4ccccc4)cc23)cc1)c1ccccc1` [Compound 229] showed an IC50 in experiment [1] of under 1000 nM.
On the same count and under the same terms, under `O=C(Nc1ccc(CCNc2ncnc3oc(-c4ccccc4)cc23)cc1)Nc1cccnc1` [Compound 231] stands under 1000 nM; under `CN(C)CCNC(=O)Nc1ccc(CCNc2ncnc3oc(-c4ccccc4)cc23)cc1` [Compound 233], under 1000 nM.
Same read-out and setting: under `CN(C)CCNC(=O)Nc1ccc(CCNc2ncnc3oc(-c4ccccc4)c(Cl)c23)cc1` [Compound 234] stands under 1000 nM; under `Cc1cc(NC(=O)Nc2ccc(CCNc3ncnc4oc(-c5ccccc5)c(-c5ccccc5)c34)cc2)n[nH]1` [Compound 238], under 1000 nM; under `CC(C)(C)OC(=O)N1CCN(CCCOc2ccc(-c3cc4c(NCCc5ccc(NC(=O)Nc6ccccc6)cc5)ncnc4o3)cc2)CC1` [Compound 242], < 1000 nM and 45 to 400 nM.
